Experimental findings from patent publication US20110200625A1, “PHARMACEUTICAL COMPOSITION” (priority 2010, published 2011) are described below.

A short description of the series: presence of drug in the epidermis after the composition is applied to the skin. Format: in vivo. The note with it: after the composition containing the drug has been applied to the skin. The source says:
In the present invention, the Hsieh enhancer is used in a different way, that is, as a penetration-facilitator for delivery of drug to the dermal layer of the skin without significant, if any, systemic absorption of the drug into the blood stream of the user.

For `CO[C@H]1C[C@@H]2CC[C@@H](C)[C@@](O)(O2)C(=O)C(=O)N2CCCC[C@H]2C(=O)O[C@H]([C@H](C)C[C@@H]2CC[C@@H](O)[C@H](OC)C2)CC(=O)[C@H](C)/C=C(\C)[C@@H](O)[C@@H](OC)C(=O)[C@H](C)C[C@H](C)/C=C/C=C/C=C/1C` [rapamycin], the “drug observed to be present in the epidermis, time after application” value came out at 72 h.
